#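 Results reflect a 48-hour exposure of cells in 96-well plates to compound at five concentrations. GI50 is the concentration that inhibits growth by half. TGI marks complete inhibition of growth.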
# Assays:
# Test in all cases: DTP human tumour cell line panel, 48 h
# NCI-H23 lung = test system: NCI-H23 lung
# SK-OV-3 ovarian = test system: SK-OV-3 ovarian
# HCT-116 colon = test system: HCT-116 colon
# SNB-75 CNS = test system: SNB-75 CNS
# SF-295 CNS = test system: SF-295 CNS
# NCI-H522 lung = test system: NCI-H522 lung
# U251 CNS = test system: U251 CNS
# SF-539 CNS = test system: SF-539 CNS
# SW-620 colon = test system: SW-620 colon
# TK-10 renal = test system: TK-10 renal
SMILES,TGI (NCI-H23 lung),TGI (SK-OV-3 ovarian),TGI (HCT-116 colon),TGI (SNB-75 CNS),TGI (SF-295 CNS),TGI (NCI-H522 lung),TGI (U251 CNS),TGI (SF-539 CNS),TGI (SW-620 colon),TGI (TK-10 renal),GI50 (NCI-H23 lung),GI50 (SK-OV-3 ovarian),GI50 (HCT-116 colon),GI50 (SNB-75 CNS),GI50 (SF-295 CNS),GI50 (NCI-H522 lung),GI50 (U251 CNS),GI50 (SF-539 CNS),GI50 (SW-620 colon),GI50 (TK-10 renal)
CCOC(=O)/C(O)=C(/c1n[nH]c(=O)c2ccccc12)[N+](=O)[O-],> 100 µM,> 100 µM,> 100 µM,> 100 µM,> 100 µM,> 100 µM,> 100 µM,> 100 µM,> 100 µM,> 100 µM,,,,,,,,,,
CCOC(=O)C12CCCC1(O)N(NC(=O)c1ccccc1)C(C)=C2C(=O)OC (centres undefined),> 100 µM,> 100 µM,> 100 µM,,> 100 µM,> 100 µM,> 100 µM,> 100 µM,> 100 µM,> 100 µM,,,,,,,,,,
CC(=O)[CH-]C(=O)c1ccccc1.CC(=O)[CH-]C(=O)c1ccccc1.CC[O-].CC[O-].[Zr+4],> 100 µM,> 100 µM,> 100 µM,> 100 µM,> 100 µM,> 100 µM,> 100 µM,> 100 µM,> 100 µM,,> 100 µM,> 100 µM,> 100 µM,> 100 µM,> 100 µM,> 100 µM,> 100 µM,> 100 µM,> 100 µM,
Nc1nc(N)c(N=O)c(Nc2ccc(O)cc2)n1,> 100 µM,45.1 µM,> 100 µM,> 67.7 µM,> 65.1 µM,> 56.6 µM,> 100 µM,16.3 µM,> 100 µM,> 100 µM,,,,,,,,,,
C=C1C(=O)O[C@H]2[C@H]1CC/C(COC(=O)CCCCC(=O)OC/C1=C/CC[C@@]3(C)O[C@H]3[C@H]3OC(=O)C(=C)[C@@H]3CC1)=C\CC[C@@]1(C)O[C@@H]21,14 µM,> 100 µM,,> 100 µM,> 100 µM,3.57 µM,8.91 µM,4.96 µM,2.78 µM,,2.76 µM,33.4 µM,,20 µM,6.32 µM,1.76 µM,2.58 µM,2.01 µM,1.17 µM,
COc1ccc(N(CC(=O)NCCC[Te]c2ccccc2)C(=O)c2ccccc2)cc1,9.36 µM,6 µM,10.2 µM,9.64 µM,8.17 µM,8.84 µM,9.4 µM,6 µM,14.4 µM,11.4 µM,3.17 µM,2.55 µM,2.55 µM,2.58 µM,1.68 µM,3.1 µM,2.82 µM,2.3 µM,3.87 µM,3.85 µM
COc1ccc(C(=O)C(c2ccc(OC)cc2)C2(O)C(=O)Nc3ccccc32)cc1 (centres undefined),> 100 µM,> 100 µM,> 100 µM,> 100 µM,> 100 µM,> 100 µM,> 100 µM,> 100 µM,> 100 µM,> 100 µM,,,,,,,,,,
COc1ccccc1OCC(=O)Nc1sc2c(c1C(N)=O)CCC2,> 100 µM,> 100 µM,> 100 µM,> 100 µM,,> 100 µM,> 100 µM,> 100 µM,> 100 µM,> 100 µM,> 100 µM,> 100 µM,> 100 µM,> 100 µM,,> 100 µM,> 100 µM,> 100 µM,> 100 µM,> 100 µM
O=C(O)/C=C/n1c2ccccc2c(=O)c2ccccc21,> 100 µM,,> 100 µM,,> 100 µM,> 100 µM,> 100 µM,> 100 µM,> 100 µM,,,,,,,,,,,
COc1cc2c3c(n(CCCCOC(=O)C(F)(F)F)c(=O)c2cc1OC)-c1cc2c(cc1C3=O)OCO2,> 100 µM,> 100 µM,,> 100 µM,> 100 µM,> 100 µM,> 100 µM,> 100 µM,> 100 µM,> 100 µM,> 100 µM,> 100 µM,,> 86.8 µM,> 41.7 µM,,> 38.8 µM,> 100 µM,> 100 µM,> 100 µM
COc1cc2nc3sc(C(=O)Nc4ccc(C(=O)OC(C)C)cc4)c(C(=O)Nc4ccc(Cl)cc4C)n3c(=O)c2cc1OC,40.5 µM,70 µM,> 100 µM,27.8 µM,29 µM,,18.4 µM,80.8 µM,25 µM,12.7 µM,13.6 µM,23.3 µM,11.3 µM,10.2 µM,11.2 µM,,5.14 µM,23.2 µM,1.88 µM,2.45 µM
Cc1cc2c(cc1Cl)SC1=CC(=O)N(c3ccccc3)C1=NS2(=O)=O,> 100 µM,> 100 µM,> 100 µM,,> 100 µM,> 100 µM,> 100 µM,,> 100 µM,60.3 µM,> 100 µM,> 100 µM,30.9 µM,,> 100 µM,67.1 µM,57.5 µM,,33.1 µM,21.6 µM
CC(C)=CCC[C@H](C)[C@@H]1CC[C@]2(C)C3CC[C@]4(OC4(C)C)C(CCCO)[C@]3(C)CC[C@@]12C (some centres undefined),40.2 µM,,> 100 µM,58 µM,63.3 µM,> 100 µM,66.1 µM,50.1 µM,64.8 µM,38.2 µM,18.7 µM,,29 µM,29.8 µM,27.9 µM,32.4 µM,19.7 µM,23.6 µM,28 µM,17.5 µM
Oc1ccccc1-c1nn(CNc2cccc(Cl)c2)c(=S)o1,71.8 µM,> 100 µM,> 100 µM,,> 100 µM,> 100 µM,39.6 µM,> 100 µM,> 100 µM,86.3 µM,22.8 µM,> 100 µM,25.3 µM,,> 100 µM,> 100 µM,4.91 µM,27.6 µM,27.2 µM,13.1 µM
C=CCCC(OCOCCOC)c1cc(C)c(O[Si](C)(C)C(C)(C)C)c(C)c1 (centres undefined),31.5 µM,55.1 µM,,35.6 µM,31.8 µM,25.4 µM,27.3 µM,38.6 µM,33.2 µM,41.2 µM,,,,,,,,,,

# From PubChem BioAssay (NCI)
